Laboratory results taken from patent publication US11130959B2, “Methods and compositions for combinations of mutations associated with herbicide resistance/tolerance in rice” (priority 2016, dated 2021).

How the values were obtained:
[1] = system: rice line RTA1 (ML0831265-01493, G2096S); experiment: Field trait tolerance trial, FOP herbicides applied sequentially at 2-leaf and pre-flood; type: in vivo, Oryza sativa; conditions: for injury rates: RTA1, 2× application rates
Excerpt: (§1) FIG. 20A-FIG. 20D showing % Injury response data and plot pictures. Material tested included ACCase-inhibitor resistant combined ACCase lines (RTA1+RTA2), the RTA1 and the RTA2 singles and the stack RTA1+HPPDi+HPPDni. Two applications (at the 2 leaf and pre-flood stage) used the same rate for both applications. […] (all images taken 4 weeks post preflood app), FIG. 20D Plat order (left to right) RTA1, RTA2, RTA1+RTA2, RTA1+HPPD i+HPPDni, P1003, R0146.
(§2) FIG. 21A-FIG. 21E, show plot pictures and % Injury response for ACCase lines RTA1, RTA2, and the stacks RTA1+RTA2 as well as the stack […], when challenged by increasing doses of the main FOP herbicides. […] FIG. 21A untreated control, FIG. 21B 4× Quizalofop, FIG. 21C 4× Fluazifop, FIG. 21D 4× Propaquizafop. 4 weeks post preflood application. Plot order (left to right) G2096S, RTA2, G2096S+RTA2, G2096S+HPPD, P1003, R0146. FIG. 21E graphical representation.
Yield response after sequential 2-leaf and pre-flood quizalofop application.
(§3) Evaluation of the novel herbicide resistance genes, subject of this application, was conducted with a range of suitable herbicide doses that cover application rates typically used for rice farming operations while also taking into consideration possible deviations from the manufacturer-recommended doses. Considering 1×, the recommended manufacturers or best practice recommended dose, the most frequently evaluated additional doses are 2× and 4× with some experiments including other values.

[2] = system: rice line RTA1+RTA2 (RL1225468, double homozygous stack); experiment: as above
Excerpt: as §1, §2, §3

[3] = system: common weeds in rice (grass weeds such as barnyard grass); experiment: Weed control in rice crops; type: in vivo; conditions: in vivo
Experimental: FIGS. 5A and 5B are photographs of results of trait tolerance trials; weed control by mesotrione herbicide applied pre-planting was evaluated; the plots were planted with a hybrid of the HPPD tolerant line ML0831266-03093; just before planting, the plot on the right FIG. 5B received an application of mesotrione at 210 gmai/ha; the plot on the left FIG. 5A had no herbicide applied either pre-plant or post-emergence; pictures were taken four weeks after planting showing differences in weed appearance.
While testing the tolerant lines, the parent lines were also tested to serve as controls and as an indication of commercial potential as a red rice/wild weedy rice control strategy.
Rice is tolerant to certain ACCase inhibitor herbicides, for example cyhalofop is registered for use in rice. However other ACCase herbicides kill or severely injure rice to varying degrees. […] The applied rates of both types of herbicides giving the weed control are well within the tolerance level of the respective ACCase and HPPD tolerant lines including the combined lines carrying tolerance to both HPPD and ACCase herbicides.

[4] = system: rice line PL1214418M2-73009 and new lines that inherited the ACCase tolerance; experiment: Trial of recovery of ACCase tolerance in the combined line; type: in vivo, Oryza sativa; conditions: 0.5×, 1×, 2×, 4× of label rate
Experimental: Another trial was conducted to confirm recovery of the ACCase inhibitor resistance from the RTA1 mutation as in the line ML0831265-01493. In this trial the new line PL1214418-73009 with combined HPPD and ACCase tolerance was planted in a row along with other various lines including the original donor line ML0831265-01493 (planted in a plot), ML0831266-03093, P1003, R0146 parent line for ACCase tolerance. The lines were all tested with the ACCase herbicides fluazifop at 0.5×, 1×, 2×, and 4× multiples of the label application rate (210 gmai/ha) and quizalofop at 0.5×, 1×, 2×, and 4× multiples of the label application rate (77 gmai/ha).

[5] = system: rice lines RTA1, RTA2, RTA1+RTA2, RTA1+HPPD; experiment: Field trial with increasing doses of FOP herbicides, all trait combinations; type: in vivo, Oryza sativa
Excerpt: 4 weeks post preflood application. […] FIG. 21E graphical representation.

[6] = system: rice line ML0831265-02283 (RTA2); experiment: Field validation of tolerance to ACCase herbicide, percent injury 21 days after application; type: in vivo, Oryza sativa; conditions: 2× and 4× of labeled rate (77 gmai/ha), four leaf stage
Excerpt: After screening a large mutant population, the line ML0831265-02283 also survived application of the ACCase herbicide quizalofop. The line was increased to obtain sufficient seed for larger trials to evaluate its tolerance to ACCase herbicides. The tolerance to ACCase herbicides in line ML0831265-02283 was validated by planting in the field plots (5 feet by 10 feet) of the line, the non-mutant parent line R0146, a second non-mutant line P1003, and the ACCase tolerant line ML0831265-01493. The ACCase herbicide quizalofop was applied at the four leaf stage at 0.5×, 1×, 2×, and 4× multiples of the labeled rate (77 gmai/ha). Twenty one days after the herbicide was applied the plots were evaluated for percent injury caused to the rice based on control plots that had no herbicide application (FIG. 6). The data confirms the tolerance of line ML0831265-02283 and it may even carry more tolerance than line ML0831265-01493 as shown by less injury at the 2× and 4× rates of quizalofop.

[7] = system: mutant plants carrying RTA2 (R0146 X ML-083126502283F2); experiment: MutMap F2 population herbicide response scoring; type: in vivo, Oryza sativa; conditions: 3 week old plants, scored 21 days after spray
Excerpt: A MutMap population was F2 plants from a cross between rice line R0146 X ML-083126502283F2. Pictures were taken 16 days post herbicide spray.
The herbicide Quizalofop was sprayed on the test fields. […] The plants were scored first at 16 days after the herbicide spray and then at 21 days after herbicide spray.
Mutant plants carrying the ‘unknown mutation RTA2’ were resistant. 3 week old plants were sprayed with Quizalofop and the herbicide response was scored 21 days after the spray. Susceptible symptoms were already observed 7 days after the Quizalofop spray, but scoring was done at 21 days. […] Few plants scored 3 (little damage on leaves or new leaf growth observed, and most likely plants will survive) or score 5 (half of the canopy is damaged and hard to predict whether the plants will survive or not), or score 7 (more damage on leaves, plants will not survive).

Row | SMILES | rates of injury compared with the other FOP herbicides ([1]; RTA1) | injury ([2]; RTA1+RTA2, 4×, FIG. 21 trial) | control of common grass weeds, such as barnyard grass, in rice [3] | tolerance compared with donor line ML0831265-01493 [4] | usability on the crop ([5]; rates of 2× or less, any trait combination containing RTA1) | injury rates [1] [%] | rates of injury compared with other FOP herbicides ([5]; across all trait combinations) | yield ([1]; RTA1, 1× and 2× application rates) | injury ([2]; RTA1+RTA2, 4× label rate, 4 weeks post preflood application) | injury ([2]; RTA1+RTA2, high application rates, FIG. 21 trial) | maximum dose tolerated with no phytotoxicity ([2]; double homozygous RTA1-RTA2, 2-leaf stage) [oz/acre] | percent injury compared with line ML0831265-01493 [6] | herbicide response [7]
1 | CC(Oc1ccc(Oc2ccc(C(F)(F)F)cn2)cc1)C(=O)O (stereo not shown) [Fluazifop] | much lower than either of the other FOP herbicides | minimal injury | good control | equivalent tolerance | viable | – | – | – | – | – | – | – | –
2 | CC(C)=NOCCOC(=O)[C@@H](C)Oc1ccc(Oc2cnc3cc(Cl)ccc3n2)cc1 [Propaquizafop] | – | – | – | – | – | ~40 | highest rates of injury | – | – | – | – | – | –
3 | CC(Oc1ccc(Oc2cnc3cc(Cl)ccc3n2)cc1)C(=O)O (stereo not shown) [Quizalofop] | – | – | good control | equivalent tolerance | – | ~40 | – | good yield retention | no injury | minimal | 80 | less injury | resistant
